Data from the supplement of paper PMC6045584.
± gives the standard deviation of the averaged measurements.

Legend:
[1] = compound: CC[C@@]1(O)C(=O)OCc2c1cc1n(c2=O)Cc2cc3ccccc3nc2-1 [CAMPTOTHECIN]; assay: surviving fraction relative to DMSO-only wells; higher = less growth inhibition; settings: exposure time: 5 days
How it was run: (§1)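 Log-phase tumour cell lines were seeded at 250–500 cells per well in 384-well plates. After 24 hours they were exposed continuously for five days to inhibitors at 0.5, 1, 5, 10, 50, 100, 500 and 1000 nM. Viability was read by CellTiter-Glo luminescence after 10 minutes at room temperature, and surviving fraction is luminescence normalised to the median of DMSO-only wells. Each line was screened three times and kept only if replicate Pearson r >0.7 and median Z' >0.3.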

[2] = compound: COCC[n+]1c2c(n(Cc3cnccn3)c1C)C(=O)c1ccccc1C2=O [YM155]; assay: as above; settings: exposure time: 5 days
How it was run: as §1

Test System	surviving fraction ([1]; 0.5 nM)	surviving fraction ([1]; 1 nM)	surviving fraction ([1]; 5 nM)	surviving fraction ([1]; 10 nM)	surviving fraction ([1]; 50 nM)	surviving fraction ([1]; 100 nM)	surviving fraction ([1]; 500 nM)	surviving fraction ([1]; 1000 nM)	surviving fraction ([2]; 0.5 nM)	surviving fraction ([2]; 1 nM)	surviving fraction ([2]; 5 nM)	surviving fraction ([2]; 10 nM)	surviving fraction ([2]; 50 nM)	surviving fraction ([2]; 100 nM)	surviving fraction ([2]; 500 nM)	surviving fraction ([2]; 1000 nM)
CAL120 BREAST	0.901 ± 0.069	0.819 ± 0.0086	0.409 ± 0.033	0.314 ± 0.035	0.182 ± 0.011	0.105 ± 0.0043	0.0285 ± 0.0023	0.0287 ± 0.0014	0.934 ± 0.049	0.905 ± 0.073	0.148 ± 0.021	0.0712 ± 0.0018	0.0243 ± 0.001	0.0215 ± 0.00087	0.016 ± 0.00087	0.023 ± 0.0017
CASKI CERVIX	0.798 ± 0.11	0.821 ± 0.062	0.575 ± 0.054	0.38 ± 0.035	0.0697 ± 0.0057	0.0273 ± 0.00058	0.018	0.0217 ± 0.0011	0.914 ± 0.052	0.93 ± 0.07	0.796 ± 0.056	0.538 ± 0.046	0.063 ± 0.009	0.0337 ± 0.0011	0.0223 ± 0.0015	0.0267 ± 0.0015
CCK81 LARGE INTESTINE	0.789 ± 0.034	0.805 ± 0.085	0.693 ± 0.16	0.542 ± 0.097	0.506 ± 0.051	0.416 ± 0.046	0.056 ± 0.007	0.0267 ± 0.0049	0.854 ± 0.1	0.82 ± 0.03	0.735 ± 0.076	0.745 ± 0.021	0.674 ± 0.022	0.798 ± 0.073	0.719 ± 0.036	0.801 ± 0.13
CHLA90 AUTONOMIC GANGLIA	0.318 ± 0.011	0.835 ± 0.041	0.584 ± 0.031	0.481 ± 0.05	0.173 ± 0.0053	0.268 ± 0.0099	0.133 ± 0.033	0.137 ± 0.027	0.807 ± 0.017	0.926 ± 0.075	0.734 ± 0.057	0.44 ± 0.057	0.106 ± 0.028	0.0633 ± 0.013	0.025 ± 0.0027	0.0273 ± 0.0015
CME SYNOVIAL	0.013 ± 0.0036	0.14 ± 0.019	0.0177 ± 0.00058	0.0897 ± 0.018	0.028 ± 0.0027	0.152 ± 0.017	0.1177 ± 0.00058	0.229 ± 0.0051	0.752 ± 0.12	0.95 ± 0.22	0.468 ± 0.037	0.254 ± 0.049	0.232 ± 0.023	0.206 ± 0.0035	0.189 ± 0.0055	0.27 ± 0.029
COLO320DM LARGE INTESTINE	0.381 ± 0.011	0.929 ± 0.12	0.458 ± 0.026	0.38 ± 0.023	0.137 ± 0.003	0.263 ± 0.0072	0.138 ± 0.0052	0.127 ± 0.0051	0.981 ± 0.051	1.01 ± 0.063	0.994 ± 0.087	1.03 ± 0.17	0.708 ± 0.059	0.528 ± 0.057	0.231 ± 0.013	0.201 ± 0.012
G292 BONE	0.901 ± 0.015	0.874 ± 0.047	0.591 ± 0.037	0.383 ± 0.014	0.292 ± 0.0027	0.18 ± 0.012	0.121 ± 0.0073	0.102 ± 0.0078	0.967 ± 0.04	1 ± 0.047	0.654 ± 0.024	0.528 ± 0.037	0.251 ± 0.0065	0.194 ± 0.007	0.0688 ± 0.0042	0.0473 ± 0.0024
H23 LUNG	0.919 ± 0.02	0.916 ± 0.041	0.56 ± 0.021	0.269 ± 0.0046	0.0917 ± 0.006	0.0627 ± 0.0011	0.0193 ± 0.00058	0.0197 ± 0.00058	0.78 ± 0.053	0.822 ± 0.056	0.125 ± 0.014	0.113 ± 0.003	0.0233 ± 0.0021	0.02 ± 0.0017	0.0163 ± 0.0011	0.0227 ± 0.0015
HCC38 BREAST	0.946 ± 0.16	0.926 ± 0.15	0.563 ± 0.16	0.351 ± 0.12	0.0953 ± 0.0049	0.0423 ± 0.009	0.038 ± 0.0072	0.0387 ± 0.0025	1.28 ± 0.18	1.27 ± 0.12	0.346 ± 0.013	0.243 ± 0.015	0.043 ± 0.0056	0.031 ± 0.002	0.0247 ± 0.0021	0.0297 ± 0.0011
HCC70 BREAST	0.905 ± 0.12	1.04 ± 0.029	0.958 ± 0.092	0.63 ± 0.044	0.443 ± 0.045	0.385 ± 0.015	0.119 ± 0.061	0.0573 ± 0.0076	1.09 ± 0.1	1.04 ± 0.11	1.01 ± 0.11	0.934 ± 0.069	0.632 ± 0.049	0.515 ± 0.044	0.135 ± 0.023	0.068 ± 0.007
